Laboratory results taken from the supplement of paper PMC6045584.
± gives the standard deviation of the averaged measurements.

Key:
[1] = compound: T1, CC1(C)CC(=O)c2c(C(F)(F)F)nn(-c3ccc(C(N)=O)c(N[C@H]4CC[C@H](OC(=O)CN)CC4)c3)c2C1 [SNX-5422]; assay: surviving fraction relative to DMSO-only wells; higher = less growth inhibition; details: exposure time: 5 days
Procedure, shortened: (§1)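 Inhibitors at 0.5, 1, 5, 10, 50, 100, 500 and 1000 nM were applied continuously for five days to tumour cell lines seeded in log phase at 250–500 cells per well in 384-well plates 24 hours earlier. Viability was measured by CellTiter-Glo luminescence and expressed as surviving fraction relative to the median of DMSO-only wells. Luminescence was taken after 10 minutes at room temperature.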

[2] = compound: Nc1nc2[nH]cnc2c(=S)[nH]1 [TIOGUANINE]; assay: as above; details: exposure time: 5 days
Procedure, shortened: as §1

[3] = compound: T1, SNX-5422; assay: area under dose-response curve of surviving fraction (unscaled, Aref=0) (surviving fraction x log10(nM)); higher = more resistant; details: exposure time: 5 days; dose range 0.5-1000 nM
Procedure, shortened: (§2)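 Inhibitor was applied to tumour cell lines at eight concentrations (0.5 to 1000 nM) for five days in 384-well plates. Luminescence from CellTiter-Glo, scaled to DMSO-only wells, gave surviving fractions in three screens per line, and these were fitted by 3-parameter logistic regression with the drc R package. The area under the curve is an unscaled activity area. Aref was 0, and dose was on a log10 scale.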

[4] = compound: CCCCCCCCCCCCCCCC(=O)Nc1ccn([C@@H]2O[C@H](CO)[C@@H](O)[C@@H]2C#N)c(=O)n1 [SAPACITABINE]; assay: as above; details: exposure time: 5 days; dose range 0.5-1000 nM
Procedure, shortened: as §2

[5] = compound: CN(C)C/C=C/C(=O)Nc1cc2c(Nc3ccc(F)c(Cl)c3)ncnc2cc1O[C@H]1CCOC1 [AFATINIB]; assay: as above; details: exposure time: 5 days; dose range 0.5-1000 nM
Procedure, shortened: as §2

[6] = compound: Cn1cc(C2=Nc3cc(NC(=O)C(N)C4CCCCC4)cc4c3C2=CNNC4=O)cn1; assay: as above; details: exposure time: 5 days; dose range 0.5-1000 nM
Procedure, shortened: as §2

Row | Test System | surviving fraction ([1]; 0.5 nM) | surviving fraction ([1]; 1 nM) | surviving fraction ([1]; 5 nM) | surviving fraction ([1]; 10 nM) | surviving fraction ([1]; 50 nM) | surviving fraction ([1]; 100 nM) | surviving fraction ([1]; 500 nM) | surviving fraction ([1]; 1000 nM) | surviving fraction ([2]; 0.5 nM) | surviving fraction ([2]; 1 nM) | surviving fraction ([2]; 5 nM) | surviving fraction ([2]; 10 nM) | surviving fraction ([2]; 50 nM) | surviving fraction ([2]; 100 nM) | surviving fraction ([2]; 500 nM) | surviving fraction ([2]; 1000 nM) | area under dose-response curve [3] | area under dose-response curve [4] | area under dose-response curve [5] | area under dose-response curve [6]
1 | HU09 BONE | 1.02 ± 0.032 | 0.991 ± 0.095 | 1.03 ± 0.15 | 0.701 ± 0.017 | 0.0323 ± 0.0029 | 0.023 ± 0.0017 | 0.0257 ± 0.0021 | 0.03 ± 0.002 | 0.964 ± 0.059 | 1.05 ± 0.071 | 1.05 ± 0.041 | 1.1 ± 0.074 | 1.04 ± 0.062 | 1.09 ± 0.089 | 1.06 ± 0.015 | 0.927 ± 0.11 | 1.39 | 2.37 | 3.05 | 2.19
2 | BT549 BREAST | 1.1 ± 0.22 | 0.861 ± 0.11 | 1.19 ± 0.077 | 1.05 ± 0.11 | 0.216 ± 0.02 | 0.187 ± 0.059 | 0.0503 ± 0.011 | 0.0473 ± 0.0074 | 1.04 ± 0.17 | 1.05 ± 0.22 | 1.09 ± 0.12 | 1.12 ± 0.11 | 1.17 ± 0.14 | 0.917 ± 0.35 | 0.86 ± 0.42 | 0.996 ± 0.24 | 1.94 | 1.85 | 3.09 | 2.19
3 | HOS BONE | 1.01 ± 0.015 | 1.04 ± 0.039 | 1.08 ± 0.016 | 1.04 ± 0.031 | 0.028 ± 0.001 | 0.051 ± 0.0078 | 0.0377 ± 0.0011 | 0.0417 ± 0.0021 | 1 ± 0.011 | 0.9977 ± 0.0091 | 1.004 ± 0.0085 | 1.02 ± 0.032 | 1.05 ± 0.033 | 1.038 ± 0.0061 | 0.75 ± 0.037 | 0.612 ± 0.016 | 1.72 | 2.63 | 3.28 | 2.35
4 | ASKA SYNOVIAL | 0.957 ± 0.041 | 0.967 ± 0.015 | 0.963 ± 0.035 | 0.883 ± 0.062 | 0.461 ± 0.05 | 0.233 ± 0.01 | 0.231 ± 0.0067 | 0.293 ± 0.0035 | 1.07 ± 0.051 | 1.09 ± 0.058 | 1.13 ± 0.08 | 1.08 ± 0.032 | 1.1 ± 0.068 | 1.073 ± 0.007 | 1.07 ± 0.044 | 1.03 ± 0.011 | 2.11 | 2.18 | 3.14 | 2.3
5 | SCC90 HEADNECK | 1.08 ± 0.089 | 1.08 ± 0.071 | 1.12 ± 0.1 | 1.16 ± 0.077 | 0.225 ± 0.08 | 0.155 ± 0.047 | 0.0307 ± 0.0061 | 0.0383 ± 0.0015 | 0.874 ± 0.047 | 0.873 ± 0.057 | 1.16 ± 0.12 | 1.09 ± 0.12 | 1.03 ± 0.17 | 1.08 ± 0.15 | 0.86 ± 0.045 | 0.743 ± 0.099 | 1.96 | 3.07 | 1.7 | 2.53
6 | SKBR3 BREAST | 0.866 ± 0.051 | 0.932 ± 0.25 | 0.93 ± 0.068 | 0.841 ± 0.051 | 0.439 ± 0.024 | 0.432 ± 0.035 | 0.192 ± 0.01 | 0.181 ± 0.002 | 1.03 ± 0.087 | 0.956 ± 0.13 | 0.946 ± 0.13 | 1.04 ± 0.17 | 1.11 ± 0.11 | 0.939 ± 0.03 | 1.08 ± 0.17 | 1.05 ± 0.045 | 2.08 | 2.23 | 0.986 | 2.39
7 | C33A CERVIX | 1.03 ± 0.086 | 0.977 ± 0.073 | 1.03 ± 0.048 | 1.01 ± 0.069 | 0.316 ± 0.025 | 0.208 ± 0.086 | 0.056 ± 0.022 | 0.0593 ± 0.025 | 0.807 ± 0.079 | 0.711 ± 0.052 | 0.9503 ± 0.0032 | 0.91 ± 0.048 | 1.03 ± 0.092 | 1.02 ± 0.023 | 0.707 ± 0.043 | 0.648 ± 0.061 | 1.96 | 2.35 | 2.23 | 2.75
